Legend:
[1] = system: ginsenoside glycosidases from A. niger; test: Hydrolysis of ginsenosides with crude ginsenoside glycosidases from A. niger, products measured by TLC; format: biochemical, Aspergillus niger; settings: for effect of metal ions on the enzyme reaction: hydrolysis of Rb1, pH 5.0, 30°C.
Description: Aspergillus niger FFCCDL-48 g was cultured in a medium containing 1% ginseng extracts and 3% wheat bran extracts at 30° C. for 54 hours. Cells were removed by centrifugation, after which (NH4)2SO4 powder was added to 2000 ml of the cell-free supernatant with stirring to 65% saturation. The solution was stored overnight at 4° C. and precipitated proteins were collected by centrifugation, resuspended in 80 ml of distilled water and dialyzed against 0.01M acetate buffer pH 5. Insolubles were removed by centrifugation, and the solution was adjusted to 200 ml with 0.01 M acetate buffer pH 5. The crude enzyme solution may be used to hydrolyze ginsenosides or to purify the enzymes.
100 mg each of ginsenosides Rb1, Rb2, Rc and Rd and 10 mg of ginsenoside Rg3 were dissolved in separate tubes containing 10 ml of 0.01M acetate buffer pH 5. 10 ml of the crude enzyme solution obtained in 1.1 was added to each tube and allowed to react at 30° C. for 18 hours. Then 10 ml of n-butanol was added to stop the reactions. The products were measured by thin layer chromatography (TLC) (Silica gel 60-F254, Merck; chloroform:methanol:water 70:30:5).
Experiments were carried out to explore the effects of temperature, pH, metal ions and reaction time on the enzyme reaction, in order to further characterize the enzymes.
100 mg of ginsenoside Rb1 was used in a reaction under the conditions as described in 1.2 and the effect of temperature was shown in Table 2.

[2] = system: ginsenoside glycosidase I; test: Hydrolysis of ginsenosides with Fraction 36 (ginsenoside glycosidase I); format: biochemical, Aspergillus niger; settings: Fraction 36; substrates Rb1, Rb2, Rc, Rd 0.5%; Rg3, F2, Rh2, C—K, Rg2 0.05%; pH 5.0, 30° C.
Description: 10 ml of the enzyme solution obtained in 1.1 was subjected to a DEAE-Cellulose DE-52 column (Pharamcia, 1.5×6.7 cm) to absorb the enzyme protein. The column was then eluted with a NaCl gradient (0.06, 0.12, 0.18, 0.24, 0.3, 0.4, 0.5 and 0.6M).
Fractions 36 and 54 from the DEAE-Cellulose column appeared as one dot on a SDS-polyacrylamide gel, representing the purified enzymes.
Fraction 36 which was eluted with 0.12 M NaCl from the DEAE-Cellulose column was lyophilized and appeared as a single dot with a molecular weight of 51,000 Daltons when running on a SDS-polyacrylamide gel.
To observe the differences between the ginsenoside glycosidases of the invention and known exo-cellulases, the ginsenoside glycosidases of the invention were compared with cellulose β-glucosidase (E.C. 3.2.1.21) in two reactions with 0.5% ginsenosides Rb1 or Rd as substrate.

[3] = system: ginsenoside glycosidases from A. oryzae; test: Hydrolysis of ginsenosides with crude ginsenoside glycosidases from A. oryzae, TLC; format: biochemical, Aspergillus oryzae; settings: pH 5.0, 30° C., 18 hours
Description: Aspergillus oryzae FFCCDL-39 g (available from Food Fermentation Culture Collection of Dalian Institute of Light Industry) was cultured with stirring in a medium containing 1% ginseng extracts and 3% wheat bran extracts at 30° C. for 64 hours. Cells were removed by centrifugation, after which (NH4)2SO4 powder was added to 2000 ml of the cell-free supernatant with stirring to 65% saturation. The solution was stored overnight at 4° C. and precipitated proteins were collected by centrifugation, resuspended in 80 ml of distilled water and dialyzed against 0.01M acetate buffer pH 5. Insolubles were removed by centrifugation, and the solution was adjusted to 200 ml with 0.01 M acetate buffer pH 5. The crude enzyme solution may be used to hydrolyze ginsenosides or to purify the enzymes.
Each 100 mg of ginsenosides Rb1, Rb2, Rc Re and Rd and each 10 mg of ginsenoside Rg3 and Rg2 were dissolved in separate tubes containing 10 ml of 0.01M acetate buffer pH 5. 10 ml of the crude enzyme solution obtained as above was added to each tube and allowed to react at 30° C. for 18 hours. Then 10 ml of n-butanol was added to stop the reactions. The products were measured by thin layer chromatography (TLC) (Silica gel 60-F254, Merck; chloroform:methanol:water 70:30:5). […]

[4] = system: ginsenoside glycosidase I from ginseng plants; test: Hydrolysis of ginsenosides with fraction 52 (ginsenoside glycosidase I) from ginseng plant; format: biochemical; settings: Fraction 52; substrate 0.5%; 50° C., pH 5.0, 18 hours
Description: 200 g of fresh ginseng root was cut into pieces and added to 600 ml of 0.02 M acetate buffer pH 5. Supernatant was obtained by filtration after the mixture stand at 40° C. for 2 hours. To the supernatant (NH4)2SO4 was added gradually until 70% saturation and the mixture stand overnight at 4° C. Then protein pellets were collected by centrifugation and redissolved in 15 ml of distilled water. The solution was dialyzed against 0.02 M Tris-HCl pH 7.4. Insolubles were removed by centrifugation and the volume of the supernatant was adjusted to 20 ml.
5 ml of the enzyme solution was subjected to a DEAE-Cellulose DE-25 column (Whatman, 1.4×6.7 cm). The column was eluted with a KCl gradient (0.06, 0.12, 0.18 and 0.24 M) in 0.02 M Tris-HCl pH 7.4. After elution, each fraction was tested for the activity of hydrolyzing ginsenosides. […] Fraction 52 can also hydrolyze the glucosidic bond at the twentieth carbon atom of Rb and Rc to give ginsenoside F2.

[5] = system: ginsenoside glycosidases from wheat bran; test: Hydrolysis of ginsenosides with ginsenoside glycosidases from wheat bran; format: biochemical; settings: for effect of metal ion on the enzyme activity: enzymes from wheat bran
Description: 500 g of wheat bran was added to 2500 ml of 0.02 M acetate buffer pH 5 and extracted at 40° C. for 2 hours. 2000 ml of supernatant were obtained by filtration to which (NH4)2SO4 was added gradually with stirring until 70% saturation. The mixture stand at 4° C. overnight. Protein pellets were collected by centrifugation and redissolved in 80 ml of distilled water and dialyzed against 0.02 M acetate buffer pH 5.0. Insolubles were removed by centrifugation and the supernatant was adjusted to a volume of 200 ml to obtain the crude enzyme solution.
10 ml of the enzyme solution was allowed to react with 10 ml of 1% ginsenoside substrate at 40° C. for 20 hours.

[6] = 10 ml of 1% ginsenoside substrate, 40° C., 20 hours

CC(C)=CCC[C@](C)(O[C@@H]1O[C@H](CO[C@@H]2OC[C@H](O)[C@H](O)[C@H]2O)[C@@H](O)[C@H](O)[C@H]1O)[C@H]1CC[C@]2(C)[C@@H]1[C@H](O)C[C@@H]1[C@@]3(C)CC[C@H](O[C@@H]4O[C@H](CO)[C@@H](O)[C@H](O)[C@H]4O[C@@H]4O[C@H](CO)[C@@H](O)[C@H](O)[C@H]4O)C(C)(C)[C@@H]3CC[C@]12C [Rb2, ginsenoside Rb2] was tested, and the “Percentage of C—K in the reaction product” value (“Percentage of C—K” for short) ([1]; pH 5, 30° C., 18 hours) was 17%, the “Percentage of F2 in the reaction product” value ([1]; pH 5, 30° C., 18 hours) was 57% and the “Percentage of Rb2 in the reaction product” value ([1]; pH 5, 30° C., 18 hours) was 7%. For the same compound, the “Percentage of Rd in the reaction product” value ([1]; pH 5, 30° C., 18 hours) was 13%, the “Percentage of Rh2 in the reaction product” value (“Percentage of Rh2” below) ([1]; pH 5, 30° C., 18 hours) was 3% and the “Percentage of aglycone in the reaction product” value (“Percentage of aglycone” for short) ([1]; pH 5, 30° C., 18 hours) was 3%. For the same compound, the “Percentage of C—K” value [2] was 54%, the “Percentage of F2 in the reaction product” value [2] was 35% and the “Percentage of Rd in the reaction product” value [2] was 9%. The “Percentage of Rh2” value [2] was 1%, the “Percentage of aglycone” value [2] was 1% and the “Percentage of C—K” value [3] was 54%. For the same compound, the “Percentage of F2 in the reaction product” value [3] was 35%, the “Percentage of Rd in the reaction product” value [3] was 18% and the “Percentage of aglycone” value [3] was 3%. For the same compound, the “Percentage of F2 in the reaction product” value [4] was 65%, the “Percentage of Rd in the reaction product” value [4] was 35% and the “Percentage of F2 in the reaction product” value [5, 6] was 50%. For the same compound, the “Percentage of Rd in the reaction product” value [5, 6] was 45%.
[Mg+2] [Mg^++] was tested, and the “effect of metal ions on the enzyme reaction” value [1] was “slightly accelerate the conversion rate” and the “effect of metal ion on the enzyme activity” value [5] was “enhance the enzyme activity”.
[Fe+2] [Fe^++] was tested, and the “effect of metal ion on the enzyme activity” value [5] was “enhance the enzyme activity”.
For CC(C)=CCC[C@](C)(O)[C@H]1CC[C@]2(C)[C@@H]1[C@H](O)C[C@@H]1[C@@]3(C)CC[C@H](O[C@@H]4O[C@H](CO)[C@@H](O)[C@H](O)[C@H]4O)C(C)(C)[C@@H]3CC[C@]12C [Rh2, ginsenoside Rh2], the “Percentage of Rh2” value [2] was 89% and the “Percentage of aglycone” value [2] was 10%.
In the case of [Pb+2] [Pb^++], the “effect of metal ions on the enzyme reaction” value [1] is reported as “inhibit the reaction”.
CC(C)=CCC[C@](C)(O[C@@H]1O[C@H](CO)[C@@H](O)[C@H](O)[C@H]1O)[C@H]1CC[C@]2(C)[C@@H]1[C@H](O)C[C@@H]1[C@@]3(C)CC[C@H](O)C(C)(C)[C@@H]3[C@@H](O[C@@H]3O[C@H](CO)[C@@H](O)[C@H](O)[C@H]3O[C@@H]3O[C@@H](C)[C@H](O)[C@@H](O)[C@H]3O)C[C@]12C [Re, ginsenoside Re] was tested, and the “Percentage of Re in the reaction product” value [3] was 20%, the “Percentage of Rg1 in the reaction product” value [3] was 73% and the “Percentage of Rh1 in the reaction product” value [3] was 2%. For the same compound, the “Percentage of aglycone” value [3] was 5%.
With CC(C)=CCC[C@](C)(O)[C@H]1CC[C@]2(C)[C@@H]1[C@H](O)C[C@@H]1[C@@]3(C)CC[C@H](O)C(C)(C)[C@@H]3[C@@H](O[C@@H]3O[C@H](CO)[C@@H](O)[C@H](O)[C@H]3O[C@@H]3O[C@@H](C)[C@H](O)[C@@H](O)[C@H]3O)C[C@]12C [Rg2, ginsenoside Rg2] the “Percentage of Rg2 in the reaction product” value [2] was 100%, the “Percentage of Rg2 in the reaction product” value [3] was 32% and the “Percentage of Rh1 in the reaction product” value [3] was 75%. The “Percentage of aglycone” value [3] was 3%.
CC(C)=CCC[C@](C)(O[C@@H]1O[C@H](CO)[C@@H](O)[C@H](O)[C@H]1O)[C@H]1CC[C@]2(C)[C@@H]1[C@H](O)C[C@@H]1[C@@]3(C)CC[C@H](O[C@@H]4O[C@H](CO)[C@@H](O)[C@H](O)[C@H]4O)C(C)(C)[C@@H]3CC[C@]12C [F2, ginsenoside F2] was tested, and the “Percentage of C—K” value [2] was 62%, the “Percentage of F2 in the reaction product” value [2] was 30% and the “Percentage of Rh2” value [2] was 3%. The “Percentage of aglycone” value [2] was 5%.
CC(C)=CCC[C@](C)(O)[C@H]1CC[C@]2(C)[C@@H]1[C@H](O)C[C@@H]1[C@@]3(C)CC[C@H](O[C@@H]4O[C@H](CO)[C@@H](O)[C@H](O)[C@H]4O[C@@H]4O[C@H](CO)[C@@H](O)[C@H](O)[C@H]4O)C(C)(C)[C@@H]3CC[C@]12C [Rg3, ginsenoside Rg3] was tested, and the “Percentage of Rg3 in the reaction product” value (shortened to “Percentage of Rg3”) ([1]; pH 5, 30° C., 18 hours) was 30%, the “Percentage of Rh2” value ([1]; pH 5, 30° C., 18 hours) was 53% and the “Percentage of aglycone” value ([1]; pH 5, 30° C., 18 hours) was 17%. The “conversion rate from Rg3 to Rh2” value ([1]; pH 5, 30° C., 18 hours) was “over 50%”, the “Percentage of Rg3” value [2] was 40% and the “Percentage of Rh2” value [2] was 57%. For the same compound, the “Percentage of aglycone” value [2] was 3%, the “Percentage of Rg3” value [3] was 45% and the “Percentage of Rh2” value [3] was 50%. For the same compound, the “Percentage of aglycone” value [3] was 5%.
For CC(C)=CCC[C@](C)(O[C@@H]1O[C@H](CO)[C@@H](O)[C@H](O)[C@H]1O)[C@H]1CC[C@]2(C)[C@@H]1[C@H](O)C[C@@H]1[C@@]3(C)CC[C@H](O)C(C)(C)[C@@H]3CC[C@]12C [C—K, ginsenoside C-K], the “Percentage of C—K” value [2] was 97% and the “Percentage of aglycone” value [2] was 3%.

— patent publication US7759101B2, “Ginsenoside glycosidases hydrolyzing ginsenoside sugar moieties and uses thereof” (priority 2000, dated 2010)
